{"source": "patent US11000033B2", "about": "“Ketone or oxime compound, and herbicide” (NISSAN CHEMICAL CORPORATION, priority 2014, dated 2021)", "data": [{"units": {"melting point": "°C"}, "values": [{"smiles": "CON=CCC1CC(O)=C(c2c(C)cc(C)cc2C)C1=O", "note": "(stereo not shown) [1-050]", "melting point": "96 to 108"}, {"smiles": "CON=C(C)CC1CC(OC)=C(c2c(C)cc(C)cc2C)C1=O", "note": "(stereo not shown) [1-001, 2-mesityl-3-methoxy-5-{2-(methoxyimino)propyl}cyclopent-2-enone]", "melting point": "92 to 98"}, {"smiles": "CON=C(C)CC1CC(O)=C(c2c(C)cc(C)cc2C)C1=O", "note": "(stereo not shown) [1-002, 3-hydroxy-2-mesityl-5-{2-(methoxyimino)propyl}cyclopent-2-enone]", "melting point": "170 to 173"}, {"smiles": "CON=C(CC1CC(O)=C(c2c(C)cc(C)cc2C)C1=O)C(C)(C)C", "note": "(stereo not shown) [1-059]", "melting point": "163 to 164"}, {"smiles": "CC(CC1CC(O)=C(c2c(C)cc(C)cc2C)C1=O)=NOCC(F)(F)F", "note": "(stereo not shown) [1-028]", "melting point": "172 to 174"}, {"smiles": "CCCC(CC1CC(O)=C(c2c(C)cc(C)cc2C)C1=O)=NOC", "note": "(stereo not shown) [1-062]", "melting point": "134 to 137"}, {"smiles": "CC(CC1CC(O)=C(c2c(C)cc(C)cc2C)C1=O)=NOC(C)C", "note": "(stereo not shown) [1-052]", "melting point": "93 to 95"}, {"smiles": "CCC(C)C(CC1CC(O)=C(c2c(C)cc(C)cc2C)C1=O)=NOC", "note": "(stereo not shown) [1-066]", "melting point": "154 to 156"}, {"smiles": "CC(CC1CC(O)=C(c2c(C)cc(C)cc2C)C1=O)=NOc1ccccc1", "note": "(stereo not shown) [1-057]", "melting point": "149 to 151"}, {"smiles": "CC(CC1CC(O)=C(c2c(C)cc(C)cc2C)C1=O)=NOC(C)(C)C", "note": "(stereo not shown) [1-053]", "melting point": "145 to 147"}, {"smiles": "CC(CC1CC(O)=C(c2c(C)cc(C)cc2C)C1=O)=NO", "note": "(stereo not shown) [1-058]", "melting point": "95 to 98"}, {"smiles": "CCON=C(C)CC1CC(O)=C(c2c(C)cc(C)cc2C)C1=O", "note": "(stereo not shown) [1-003]", "melting point": "135 to 140"}, {"smiles": "CCC(CC1CC(O)=C(c2c(C)cc(C)cc2C)C1=O)=NOC", "note": "(stereo not shown) [1-038]", "melting point": "147 to 149"}]}]}
